Data from patent publication US20250144067A1, “PERSONALIZED STARVATION THERAPY FOR CANCER” (Faeth Therapeutics, Inc., priority 2021, published 2025).
Structures can show the parent of a compound that is named as a salt.

Assays:
[1] = tested on: NCI-H292 lung cancer cells; test: FDA drug screening, complete media vs cholesterol-free media without statin (TABLE 1); format: cell-based, human
[2] = tested on: NCI-H292 lung cancer cells; test: FDA drug screening, complete media vs cholesterol-free media with simvastatin (TABLE 2); format: cell-based, human; conditions: for Cholesterol-free media + simvastatin (0.04 μM) / Complete Media: NCI-H292 cells
[3] = Complete minus Cholesterol-free, greater than 0 enhanced anti-cancer activity, about 0 neutral, below 0 antagonist
[4] = NCI-H292 cells, FDA drug library screen, cholesterol-free media without statin
[5] = NCI-H292 cells, FDA drug library screen, complete media
[6] = drug in cholesterol-free media with simvastatin 0.04 μM
[7] = complete media vs cholesterol-free media + simvastatin (0.04 μM), >0 enhanced anti-cancer activity, about 0 neutral, <0 antagonist
[8] = NCI-H292 cells, cholesterol-free media without statin
[9] = complete vs cholesterol-free media, greater than 0 enhanced anti-cancer activity, about 0 neutral, below 0 antagonists
[10] = Complete minus Cholesterol-free, >0 enhanced anti-cancer activity, about 0 neutral, <0 antagonist
[11] = NCI-H292 cells, cholesterol-free media without statin, FDA drug library screen
[12] = NCI-H292 cells, complete media, FDA drug library screen
[13] = FDA library drug in cholesterol-free media with simvastatin 0.04 μM
[14] = FDA library drug in complete media
[15] = cholesterol-free media with simvastatin 0.04 μM, FDA drug library screen (TABLE 2)
[16] = complete media, FDA drug library screen (TABLE 2)
[17] = complete media minus cholesterol-free media + simvastatin (0.04 μM), >0 enhanced anti-cancer activity, about 0 neutral, <0 antagonist
[18] = Complete minus Cholesterol-free, greater than 0 enhanced anti-cancer activity, about 0 neutral, below 0 antagonists
[19] = NCI-H292 cells in cholesterol-free media without statin
[20] = NCI-H292 cells in complete media

In the case of CCCCN1CCCCC1C(=O)Nc1c(C)cccc1C (stereo not drawn) [Bupivacaine (hydrochloride)], the Difference [1, 3] is reported as −0.15, the Cholesterol-free [1, 4] is reported as 1.158 and the Complete [1, 5] is reported as 1.01. The “Cholesterol-free media + simvastatin (0.04 μM)” value [2, 6] was 1.059, the “Complete Media” value ([2]; drug in complete media) was 0.8922 and the Difference [2, 7] was −0.17.

Molecule O=C1CC2(CCCC2)CC(=O)N1CCCCN1CCN(c2ncccn2)CC1 [Buspirone (hydrochloride)] has a Cholesterol-free [1, 8] of 1.286, a Complete ([1]; NCI-H292 cells, complete media) of 0.8529 and a Difference [1, 9] of −0.43. For the same molecule, the “Cholesterol-free media + simvastatin (0.04 μM)” value ([2]; cholesterol-free media with simvastatin 0.04 μM, cell growth value in FDA drug screen) was 0.8828, the “Complete Media” value ([2]; complete media, cell growth value in FDA drug screen) was 0.9935 and the Difference ([2]; complete media minus cholesterol-free media + simvastatin, >0 enhanced anti-cancer activity, about 0 neutral, <0 antagonist) was 0.11.

Work on CS(=O)(=O)OCCCCOS(C)(=O)=O [Busulfan] yielded a Difference [1, 10] of 0.07, a Cholesterol-free [1, 11] of 1.648 and a Complete [1, 12] of 1.719. For the same molecule, the “Cholesterol-free media + simvastatin (0.04 μM)” value [2, 13] was 1.936, the “Complete Media” value [2, 14] was 1.265 and the Difference [2, 7] was −0.67.

CCCCOC(=O)c1ccc(N)cc1 [Butamben] showed a Difference [1, 10] of −0.20, a Cholesterol-free [1, 8] of 1.171 and a Complete ([1]; NCI-H292 cells, complete media) of 0.9712. For the same molecule, the “Cholesterol-free media + simvastatin (0.04 μM)” value [2, 13] was 1.665, the “Complete Media” value [2, 14] was 1.081 and the Difference [2, 7] was −0.58.

Molecule CN(Cc1ccc(C(C)(C)C)cc1)Cc1cccc2ccccc12 [Butenafine (Hydrochloride)] has a Cholesterol-free [1, 8] of 1.694, a Complete ([1]; NCI-H292 cells, complete media) of 1.364 and a Difference [1, 9] of −0.33. The “Cholesterol-free media + simvastatin (0.04 μM)” value [2, 15] was 1.078, the “Complete Media” value [2, 16] was 1.061 and the Difference [2, 17] was −0.02.

CCCCC1OC(=O)c2ccccc21 (stereo not drawn) [Butylphthalide] gave a Cholesterol-free [1, 11] of 0.6966, a Complete [1, 12] of 1.343 and a Difference ([1]; complete vs cholesterol-free media, >0 enhanced anti-cancer activity, about 0 neutral, <0 antagonist) of 0.65. For the same molecule, the “Cholesterol-free media + simvastatin (0.04 μM)” value [2, 6] was 1.292, the “Complete Media” value ([2]; drug in complete media) was 1.12 and the Difference [2, 7] was −0.17.

CO[C@H]1C(=O)[C@]2(C)[C@@H](OC)C[C@H]3OC[C@@]3(OC(C)=O)[C@H]2[C@H](OC(=O)c2ccccc2)[C@]2(O)C[C@H](OC(=O)[C@H](O)[C@@H](NC(=O)OC(C)(C)C)c3ccccc3)C(C)=C1C2(C)C [Cabazitaxel] showed a Difference [1, 10] of −0.01, a Cholesterol-free [1, 11] of 0.2044 and a Complete [1, 12] of 0.198. The “Cholesterol-free media + simvastatin (0.04 μM)” value [2, 15] was 0.364, the “Complete Media” value [2, 16] was 0.3065 and the Difference [2, 17] was −0.06.

Work on C=CCN1C[C@H](C(=O)N(CCCN(C)C)C(=O)NCC)C[C@@H]2c3cccc4[nH]cc(c34)C[C@H]21 [Cabergoline] yielded a Difference [1, 18] of −0.59, a Cholesterol-free [1, 19] of 1.769 and a Complete [1, 20] of 1.184. The “Cholesterol-free media + simvastatin (0.04 μM)” value [2, 6] was 1.138, the “Complete Media” value ([2]; drug in complete media) was 0.8998 and the Difference [2, 7] was −0.24.

With COc1cc2nccc(Oc3ccc(NC(=O)C4(C(=O)Nc5ccc(F)cc5)CC4)cc3)c2cc1OC [Cabozantinib (S-malate)] the Difference [1, 3] was −0.18, the Cholesterol-free [1, 4] was 1.011 and the Complete [1, 5] was 0.8269. For the same molecule, the “Cholesterol-free media + simvastatin (0.04 μM)” value [2, 13] was 1.216, the “Complete Media” value [2, 14] was 0.9255 and the Difference [2, 7] was −0.29.

COc1cc2nccc(Oc3ccc(NC(=O)C4(C(=O)Nc5ccc(F)cc5)CC4)cc3)c2cc1OC [Cabozantinib] gave a Difference [1, 3] of −0.08, a Cholesterol-free [1, 4] of 1.023 and a Complete [1, 5] of 0.943. The “Cholesterol-free media + simvastatin (0.04 μM)” value [2, 15] was 1.169, the “Complete Media” value [2, 16] was 1.161 and the Difference [2, 17] was −0.01.

With O=C(O)/C=C/c1ccc(O)c(O)c1 [Caffeic acid] the Difference [1, 10] was 0.01, the Cholesterol-free [1, 11] was 0.885 and the Complete [1, 12] was 0.8915. For the same molecule, the “Cholesterol-free media + simvastatin (0.04 μM)” value ([2]; FDA drug library screen, cholesterol-free media with simvastatin 0.04 μM) was 0.9424, the “Complete Media” value ([2]; FDA drug library screen, complete media) was 0.8032 and the Difference [2, 7] was −0.14.

C=C1CC[C@H](O)C/C1=C/C=C1\CCC[C@]2(C)[C@@H]([C@H](C)CCCC(C)(C)O)CC[C@@H]12 [Calcifediol] gave a Difference [1, 18] of −0.53, a Cholesterol-free [1, 19] of 1.425 and a Complete [1, 20] of 0.8976. The “Cholesterol-free media + simvastatin (0.04 μM)” value [2, 6] was 1.216, the “Complete Media” value ([2]; drug in complete media) was 1.052 and the Difference [2, 7] was −0.16.

With O=S(=O)([O-])c1cc(O)ccc1O.O=S(=O)([O-])c1cc(O)ccc1O.[Ca+2] [Calcium dobesilate] the Cholesterol-free [1, 11] was 1.325, the Complete [1, 12] was 1.418 and the Difference ([1]; complete vs cholesterol-free media, […]) was 0.09. For the same molecule, the “Cholesterol-free media + simvastatin (0.04 μM)” value [2, 6] was 1.427, the “Complete Media” value ([2]; drug in complete media) was 1.218 and the Difference ([2]; complete media vs cholesterol-free media + simvastatin (0.04 μM), […]) was −0.21.
